Literature values as cited in patent publication US20240050377A1, “ORAL SOLID CANNABINOID OIL COMPOSITION FOR TREATING CENTRAL NERVOUS SYSTEM DISORDERS” (SOCIETE DES PRODUITS NESTLE S.A., priority 2021, published 2024).
Values joined by “and” are separate entries in the source; they are usually repeats but may differ in a detail not shown here. Identical values can stand only once. Like-named read-outs stand apart in the source and are kept apart here.

Tests used:
[1] = humans
[2] = low pH of the stomach; simulated gastric fluid

For C=C(C)[C@@H]1CCC(C)=C[C@H]1c1c(O)cc(CCCCC)cc1O [CBD, cannabidiol], the mean half-life ([1]; aerosol administration) is listed as 1.1 to 2.4 h, the mean half-life ([1]; oral lipid capsule administration) is listed as 2.95 h and 3.21 h and the mean half-life ([1]; single oral administration) is listed as 1.09 to 1.97 h. For the same compound, the “degradation in stomach environment” value [2] was “high levels of CBD degradation”.
